Among the data in ChEMBL document CHEMBL5291721, “A preclinical secondary pharmacology resource illuminates target-adverse drug reaction associations of marketed drugs” (Nat Commun, 2023) are AC50 values, retold here.

Broadly, the AC50 is the concentration at which the activity in the assay is half-maximal. Lower therefore signals activity at low concentration.

The target of assay [1] is Beta-1 adrenergic receptor (Homo sapiens, UniProt P08588). It is filed as functional.
Assay [2] addresses T1, Gastrin/cholecystokinin type B receptor (Homo sapiens, UniProt P32239).
T1 sequence (P32239 whole entry): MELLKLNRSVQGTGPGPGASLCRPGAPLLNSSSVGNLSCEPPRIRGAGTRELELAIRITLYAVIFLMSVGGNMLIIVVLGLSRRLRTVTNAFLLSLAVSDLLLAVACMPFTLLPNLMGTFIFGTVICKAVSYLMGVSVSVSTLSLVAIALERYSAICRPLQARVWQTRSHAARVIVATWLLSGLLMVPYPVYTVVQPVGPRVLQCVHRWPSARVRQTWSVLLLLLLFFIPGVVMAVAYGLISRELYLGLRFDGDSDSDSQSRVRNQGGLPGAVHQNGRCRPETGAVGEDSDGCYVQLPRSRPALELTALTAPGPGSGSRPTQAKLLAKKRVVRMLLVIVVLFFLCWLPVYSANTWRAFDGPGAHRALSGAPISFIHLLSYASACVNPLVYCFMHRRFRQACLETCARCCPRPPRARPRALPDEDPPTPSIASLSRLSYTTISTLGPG

Assay [3] addresses Vasopressin V1a receptor (Homo sapiens, UniProt P37288).
Assay [4] concerns the target 5-hydroxytryptamine receptor 2B (Homo sapiens, UniProt P41595). It is filed as functional, cell-based.
For assay [5], the target named is Gamma-aminobutyric acid receptor subunit alpha-1 (Rattus norvegicus, UniProt P62813). The class given is functional.
Assay [6] has as its target T2, Alpha-2A adrenergic receptor (Homo sapiens, UniProt P08913).
T2 sequence (P08913 whole entry): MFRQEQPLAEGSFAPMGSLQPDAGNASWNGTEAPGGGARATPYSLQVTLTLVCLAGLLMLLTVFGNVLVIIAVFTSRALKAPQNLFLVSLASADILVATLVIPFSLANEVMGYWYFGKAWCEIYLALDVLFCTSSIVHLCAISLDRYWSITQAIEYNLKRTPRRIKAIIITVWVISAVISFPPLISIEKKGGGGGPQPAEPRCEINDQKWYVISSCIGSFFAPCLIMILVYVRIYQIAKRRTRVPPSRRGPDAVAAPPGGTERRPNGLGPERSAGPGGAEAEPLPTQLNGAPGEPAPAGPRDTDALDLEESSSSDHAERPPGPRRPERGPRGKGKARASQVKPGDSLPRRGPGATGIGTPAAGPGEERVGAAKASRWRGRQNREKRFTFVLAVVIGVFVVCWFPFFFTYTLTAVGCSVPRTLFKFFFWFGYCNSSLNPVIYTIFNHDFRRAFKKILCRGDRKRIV
The class given is functional, cell-based.

The target in assay [7] is T3, D(1A) dopamine receptor (Homo sapiens, UniProt P21728). It is filed as functional, cell-based.
Assay [8] concerns the target Cannabinoid receptor 1 (Homo sapiens, UniProt P21554). The class given is functional, cell-based.
Assay [9] has as its target T4, 5-hydroxytryptamine receptor 1A (Homo sapiens, UniProt P08908).
T4 sequence (P08908 whole entry): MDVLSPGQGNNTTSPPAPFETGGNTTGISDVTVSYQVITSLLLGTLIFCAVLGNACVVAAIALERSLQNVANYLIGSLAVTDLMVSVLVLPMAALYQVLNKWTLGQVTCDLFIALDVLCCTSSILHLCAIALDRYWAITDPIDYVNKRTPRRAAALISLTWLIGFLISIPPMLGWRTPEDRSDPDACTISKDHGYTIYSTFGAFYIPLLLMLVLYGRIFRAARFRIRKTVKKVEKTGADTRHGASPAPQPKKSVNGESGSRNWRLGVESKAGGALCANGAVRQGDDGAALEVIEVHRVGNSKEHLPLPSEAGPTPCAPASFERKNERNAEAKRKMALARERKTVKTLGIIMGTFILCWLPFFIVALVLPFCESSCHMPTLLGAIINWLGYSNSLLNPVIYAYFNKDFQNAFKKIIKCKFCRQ

The target in assay [10] is Sodium-dependent noradrenaline transporter (Homo sapiens, UniProt P23975).
The target in assay [11] is Mu-type opioid receptor (Homo sapiens, UniProt P35372).
For assay [12], the target named is Prothrombin (Homo sapiens, UniProt P00734). It is filed as functional.
Assay [13] deals with T3, D(1A) dopamine receptor.
Further: assay procedure not described here.

Chain of Vasopressin V1a receptor (P37288 whole entry): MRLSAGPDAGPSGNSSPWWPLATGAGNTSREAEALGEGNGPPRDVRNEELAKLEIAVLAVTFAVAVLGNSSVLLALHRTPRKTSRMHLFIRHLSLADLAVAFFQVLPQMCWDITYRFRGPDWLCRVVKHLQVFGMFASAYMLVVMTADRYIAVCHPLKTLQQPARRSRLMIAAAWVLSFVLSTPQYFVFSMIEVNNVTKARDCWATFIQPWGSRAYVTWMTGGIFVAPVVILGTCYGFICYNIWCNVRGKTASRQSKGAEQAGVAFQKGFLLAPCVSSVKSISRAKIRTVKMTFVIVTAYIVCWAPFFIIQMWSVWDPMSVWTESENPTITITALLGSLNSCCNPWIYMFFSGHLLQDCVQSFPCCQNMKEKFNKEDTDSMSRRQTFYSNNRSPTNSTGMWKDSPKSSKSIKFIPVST
Chain of Cannabinoid receptor 1 (P21554 whole entry): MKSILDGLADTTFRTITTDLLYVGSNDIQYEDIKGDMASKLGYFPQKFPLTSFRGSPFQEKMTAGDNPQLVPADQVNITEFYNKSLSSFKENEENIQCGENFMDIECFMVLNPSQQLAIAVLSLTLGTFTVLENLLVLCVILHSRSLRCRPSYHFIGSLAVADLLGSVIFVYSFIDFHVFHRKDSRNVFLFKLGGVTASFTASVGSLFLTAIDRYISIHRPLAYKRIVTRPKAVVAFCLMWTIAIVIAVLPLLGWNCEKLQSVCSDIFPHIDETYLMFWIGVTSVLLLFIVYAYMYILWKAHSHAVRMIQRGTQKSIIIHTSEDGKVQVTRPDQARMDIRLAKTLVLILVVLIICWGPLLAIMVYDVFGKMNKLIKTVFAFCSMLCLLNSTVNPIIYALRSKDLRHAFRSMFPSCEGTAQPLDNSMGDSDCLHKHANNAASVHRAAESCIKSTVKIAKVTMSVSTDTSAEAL
Chain of Beta-1 adrenergic receptor (P08588 whole entry): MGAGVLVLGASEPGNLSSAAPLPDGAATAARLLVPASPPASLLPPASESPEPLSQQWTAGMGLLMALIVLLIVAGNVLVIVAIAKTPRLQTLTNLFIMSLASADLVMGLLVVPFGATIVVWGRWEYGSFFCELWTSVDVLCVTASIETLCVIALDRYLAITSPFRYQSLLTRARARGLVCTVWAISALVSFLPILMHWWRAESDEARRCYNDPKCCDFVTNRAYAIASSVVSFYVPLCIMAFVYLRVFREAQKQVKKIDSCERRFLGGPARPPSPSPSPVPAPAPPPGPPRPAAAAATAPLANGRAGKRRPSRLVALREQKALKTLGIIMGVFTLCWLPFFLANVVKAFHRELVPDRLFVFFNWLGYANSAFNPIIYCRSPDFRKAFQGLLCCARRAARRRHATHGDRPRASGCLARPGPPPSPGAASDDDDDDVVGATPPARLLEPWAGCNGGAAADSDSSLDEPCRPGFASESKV
Chain of 5-hydroxytryptamine receptor 2B (P41595 whole entry): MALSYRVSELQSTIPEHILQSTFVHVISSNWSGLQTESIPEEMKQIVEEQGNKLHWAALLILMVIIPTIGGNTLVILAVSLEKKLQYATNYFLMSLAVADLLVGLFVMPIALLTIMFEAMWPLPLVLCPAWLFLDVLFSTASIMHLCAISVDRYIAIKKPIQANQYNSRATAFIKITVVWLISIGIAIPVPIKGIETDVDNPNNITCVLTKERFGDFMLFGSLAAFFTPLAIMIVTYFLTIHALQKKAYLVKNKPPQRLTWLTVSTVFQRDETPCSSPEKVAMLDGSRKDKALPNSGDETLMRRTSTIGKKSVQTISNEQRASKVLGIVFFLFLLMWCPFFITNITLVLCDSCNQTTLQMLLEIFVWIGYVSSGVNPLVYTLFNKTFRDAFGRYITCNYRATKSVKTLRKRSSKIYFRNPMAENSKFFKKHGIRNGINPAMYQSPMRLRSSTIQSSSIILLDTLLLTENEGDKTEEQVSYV
T3 sequence (P21728 whole entry): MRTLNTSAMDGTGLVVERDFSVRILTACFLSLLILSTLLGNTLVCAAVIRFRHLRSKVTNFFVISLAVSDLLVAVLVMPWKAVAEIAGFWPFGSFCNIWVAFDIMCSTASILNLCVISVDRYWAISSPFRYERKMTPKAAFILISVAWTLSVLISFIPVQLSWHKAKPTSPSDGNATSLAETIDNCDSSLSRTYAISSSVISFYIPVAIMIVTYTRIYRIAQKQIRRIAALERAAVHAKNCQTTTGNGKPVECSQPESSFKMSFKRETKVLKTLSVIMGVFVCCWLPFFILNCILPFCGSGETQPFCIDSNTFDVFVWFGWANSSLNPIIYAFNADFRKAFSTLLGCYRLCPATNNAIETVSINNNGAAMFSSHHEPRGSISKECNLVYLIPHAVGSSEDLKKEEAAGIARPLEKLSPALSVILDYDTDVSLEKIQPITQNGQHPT
Chain of Gamma-aminobutyric acid receptor subunit alpha-1 (P62813 whole entry): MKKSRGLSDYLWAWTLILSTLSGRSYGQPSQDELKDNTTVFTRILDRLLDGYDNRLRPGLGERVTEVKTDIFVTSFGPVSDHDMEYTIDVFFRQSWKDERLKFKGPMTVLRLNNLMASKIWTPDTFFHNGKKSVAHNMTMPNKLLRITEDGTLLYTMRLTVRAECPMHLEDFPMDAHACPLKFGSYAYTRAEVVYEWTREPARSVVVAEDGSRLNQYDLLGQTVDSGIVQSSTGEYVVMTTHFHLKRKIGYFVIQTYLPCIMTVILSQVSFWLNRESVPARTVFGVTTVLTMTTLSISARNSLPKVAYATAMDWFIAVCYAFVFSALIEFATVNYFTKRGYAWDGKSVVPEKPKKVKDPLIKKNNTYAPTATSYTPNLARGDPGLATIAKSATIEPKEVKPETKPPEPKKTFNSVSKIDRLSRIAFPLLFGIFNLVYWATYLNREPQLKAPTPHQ
Chain of Mu-type opioid receptor (P35372 whole entry): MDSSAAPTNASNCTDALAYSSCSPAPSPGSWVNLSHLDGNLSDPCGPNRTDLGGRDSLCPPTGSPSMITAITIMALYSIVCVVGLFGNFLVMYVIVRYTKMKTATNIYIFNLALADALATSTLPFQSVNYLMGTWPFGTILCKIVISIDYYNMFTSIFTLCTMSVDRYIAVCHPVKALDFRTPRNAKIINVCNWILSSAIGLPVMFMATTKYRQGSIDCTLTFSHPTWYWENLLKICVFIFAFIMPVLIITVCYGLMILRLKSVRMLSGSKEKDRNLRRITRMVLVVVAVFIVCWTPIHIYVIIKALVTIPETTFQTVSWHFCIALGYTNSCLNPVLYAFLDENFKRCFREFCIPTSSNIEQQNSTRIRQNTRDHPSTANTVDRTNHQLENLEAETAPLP
Chain of Sodium-dependent noradrenaline transporter (P23975 whole entry): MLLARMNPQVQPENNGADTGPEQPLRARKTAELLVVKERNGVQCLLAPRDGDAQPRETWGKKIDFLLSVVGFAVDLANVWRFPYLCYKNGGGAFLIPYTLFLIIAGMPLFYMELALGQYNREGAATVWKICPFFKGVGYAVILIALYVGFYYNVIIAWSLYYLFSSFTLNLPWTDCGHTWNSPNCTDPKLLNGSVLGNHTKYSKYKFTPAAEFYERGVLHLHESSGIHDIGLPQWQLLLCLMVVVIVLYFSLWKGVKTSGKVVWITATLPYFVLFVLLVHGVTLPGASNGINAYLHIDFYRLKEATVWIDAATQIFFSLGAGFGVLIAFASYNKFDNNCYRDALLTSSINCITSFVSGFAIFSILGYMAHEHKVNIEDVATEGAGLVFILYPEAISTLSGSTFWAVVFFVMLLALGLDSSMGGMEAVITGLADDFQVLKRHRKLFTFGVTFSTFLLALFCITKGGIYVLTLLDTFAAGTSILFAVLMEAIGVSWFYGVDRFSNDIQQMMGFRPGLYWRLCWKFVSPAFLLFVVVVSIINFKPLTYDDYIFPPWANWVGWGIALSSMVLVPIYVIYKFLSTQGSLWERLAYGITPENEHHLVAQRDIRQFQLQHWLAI

As to `CNCc1ccc(-c2[nH]c3cc(F)cc4c3c2CCNC4=O)cc1` [RUCAPARIB], the concentration at half-maximal activity (AC50) in assay [1] is 40.1 µM; in assay [2], over 30 µM; in assay [3], over 30 µM.

As for `CC12CC3CC(C)(C1)CC(N)(C3)C2` [MEMANTINE], the half-maximal activity concentration (AC50) in [4] is over 10 µM; in assay [5] it was over 10 µM; in assay [6] it was over 10 µM; in [7], over 10 µM; in assay [1], over 10 µM; in assay [2], over 30 µM. In addition, the AC50 in assay [8] and in assay [3] was over 30 µM each time.

Regarding `CN1CCC(=C2c3ccccc3CCc3cccnc32)CC1` [AZATADINE], the AC50 in assay [4] is over 10 µM; in assay [5] it was over 10 µM; in assay [6], over 10 µM; in assay [7] it was over 10 µM; in assay [1], over 10 µM; in assay [2] it was over 30 µM. In addition, the AC50 in assay [8] and in assay [3] was over 30 µM in each case.

Consider `C[C@H](Cc1ccc(O)c(O)c1)[C@@H](C)Cc1ccc(O)c(O)c1` [MASOPROCOL], for which the AC50 is over 10 µM in assay [4]; over 10 µM in assay [5]; over 10 µM in assay [6]; over 10 µM in [7]; over 30 µM in assay [1]; over 30 µM in assay [8]. Besides, the AC50 in assay [3] is over 10 µM.

Take `CC(C(=O)O)c1ccc(-c2ccccc2)c(F)c1` (stereo not given) [FLURBIPROFEN]: the AC50 in assay [4] was over 10 µM; in assay [9], over 30 µM; in assay [5], over 10 µM; in assay [10], over 30 µM; in assay [6] it was over 10 µM; in assay [7], over 10 µM. Also, the AC50 is over 10 µM in [1]; over 30 µM in assay [11]; over 30 µM in assay [12]; over 30 µM in [13]; over 10 µM in [3].

Take `CC(C)(C)C(=O)OCC(=O)[C@H]1CC[C@H]2[C@@H]3CCC4=CC(=O)CC[C@]4(C)[C@H]3CC[C@]12C` [DESOXYCORTICOSTERONE PIVALATE]: the half-maximal activity concentration (AC50) in assay [4] was over 10 µM; in assay [5] it was over 10 µM; in [6], over 10 µM; in assay [7] it was over 10 µM; in assay [1] it was over 10 µM; in assay [8], over 30 µM. In assay [3], this molecule had an AC50 of over 10 µM.

As for `CCOC(=O)C1=C(C)NC(C)=C(C(=O)OC)C1c1cccc([N+](=O)[O-])c1` (stereo not given) [NITRENDIPINE], the half-maximal activity concentration (AC50) in assay [4] was over 10 µM; in assay [5] it was over 10 µM; in assay [6] it was over 10 µM; in assay [7], over 30 µM; in assay [1], over 10 µM; in [2], over 30 µM. Also, the results for the AC50 in assay [8] and in assay [3] were 22 µM and over 30 µM, respectively.

On to `[H]/N=C(/N)N/C(=N/[H])NCCc1ccccc1` [PHENFORMIN], for which the AC50 in assay [4] is over 30 µM; in assay [5], over 10 µM; in assay [6], over 10 µM; in [7] it was over 30 µM; in [1], over 10 µM; in assay [2], over 30 µM. Also, the AC50 in [3] was over 30 µM.

On to `CCC(=O)O[C@H]1CC[C@H]2[C@@H]3CCC4=CC(=O)CC[C@]4(C)[C@H]3CC[C@]12C` [TESTOSTERONE PROPIONATE], for which the AC50 was over 10 µM in assay [4]; over 30 µM in [5]; over 10 µM in assay [6]; over 10 µM in assay [7]; over 10 µM in assay [1]; over 30 µM in assay [8]. The same molecule yielded an AC50 in assay [3] of over 10 µM.

Take `CCCCC(=O)O[C@]1(C(=O)CO)[C@@H](C)C[C@H]2[C@@H]3CCC4=CC(=O)C=C[C@]4(C)[C@@]3(F)[C@@H](O)C[C@@]21C` [BETAMETHASONE VALERATE]: the AC50 is over 10 µM in assay [4]; over 10 µM in [5]; over 10 µM in [6]; over 10 µM in assay [7]; over 10 µM in assay [1]; over 30 µM in assay [2]. For the same molecule, the AC50 in assay [8] is over 30 µM.

For the molecule `C#C[C@]1(OC(C)=O)CC[C@H]2[C@@H]3CCC4=C/C(=N/O)CC[C@@H]4[C@H]3CC[C@@]21CC` [NORGESTIMATE], the AC50 in assay [4], in [5], in [6], in [7], in assay [1] and in [2] was over 30 µM throughout. Besides, the AC50 in [8] and in assay [3] was over 30 µM each time.

`CCC[C@H](NC(=O)[C@@H]1[C@H]2CCC[C@H]2CN1C(=O)[C@@H](NC(=O)[C@@H](NC(=O)c1cnccn1)C1CCCCC1)C(C)(C)C)C(=O)C(=O)NC1CC1`: the AC50 is over 10 µM in assay [5], over 10 µM in assay [1], over 30 µM in assay [2] and over 10 µM in assay [3].

Consider `CC(N)C(O)c1ccccc1` (stereo not given) [PHENYLPROPANOLAMINE], for which the AC50 in assay [4] is over 10 µM; in assay [5], over 10 µM; in assay [6] it was over 10 µM; in assay [7], over 10 µM; in [1] it was over 10 µM; in assay [2], over 30 µM. In assay [3], this molecule came in with an AC50 of over 30 µM.

For `C[C@]12CCC(=O)C(O)=C1CC[C@@H]1[C@@H]2CC[C@]2(C)C(=O)CC[C@@H]12` [FORMESTANE], the AC50 in [4], in assay [5], in assay [6], in assay [7], in assay [1] and in assay [2] was over 30 µM throughout. For the same molecule, the AC50 in assay [8] and in [3] was over 30 µM each time.

As for `CCCC(CCC)C(N)=O` [VALPROMIDE], the AC50 in assay [4] is over 10 µM; in assay [5], over 10 µM; in assay [6], over 10 µM; in assay [7], over 10 µM; in [1], over 10 µM; in [2] it was over 30 µM. Further, the AC50 in assay [8] is over 30 µM.

As to `CNC1=Nc2ccc(Cl)cc2C(c2ccccc2)=[N+]([O-])C1` [CHLORDIAZEPOXIDE], the AC50 was over 10 µM in assay [4]; 0.79 µM in assay [5]; over 10 µM in [6]; over 30 µM in [7]; over 10 µM in assay [1]; over 30 µM in assay [2].

As to `CC(C(=O)O)c1ccc(CC2CCCC2=O)cc1` (stereo not given) [LOXOPROFEN], the AC50 in assay [4], in [5], in [6], in [7], in assay [1] and in assay [2] was over 30 µM throughout. Further, the AC50 in assay [8] was over 30 µM.
